Measured values published in patent US5556864A, “α-ω-diarylalkane compounds serotonin-2 receptor agonists” (Sankyo Company, Limited, priority 1992, dated 1996).
Counter-ions that a name gives are not always drawn.

Legend:
5-HT2 receptors = biological target: T1, 5-HT2 receptors (Rattus norvegicus, UniProt P14842); experiment: Vasoconstriction experiment: relaxation of rat caudal artery strips precontracted with 5-HT; assay type: cell-based, rat (male Sprague-Dawley); conditions: precontracted with 5-HT 3×10^-6 M; concentration causing one half of maximum relaxation (papaverine 10^-4 M = maximum); 37 °C
T1 construct: The caudal arteries were dissected free from connective tissue and cut into spiral strips; from tissue; host or cells: rat caudal artery, spiral strips
T1 sequence (P14842 whole entry): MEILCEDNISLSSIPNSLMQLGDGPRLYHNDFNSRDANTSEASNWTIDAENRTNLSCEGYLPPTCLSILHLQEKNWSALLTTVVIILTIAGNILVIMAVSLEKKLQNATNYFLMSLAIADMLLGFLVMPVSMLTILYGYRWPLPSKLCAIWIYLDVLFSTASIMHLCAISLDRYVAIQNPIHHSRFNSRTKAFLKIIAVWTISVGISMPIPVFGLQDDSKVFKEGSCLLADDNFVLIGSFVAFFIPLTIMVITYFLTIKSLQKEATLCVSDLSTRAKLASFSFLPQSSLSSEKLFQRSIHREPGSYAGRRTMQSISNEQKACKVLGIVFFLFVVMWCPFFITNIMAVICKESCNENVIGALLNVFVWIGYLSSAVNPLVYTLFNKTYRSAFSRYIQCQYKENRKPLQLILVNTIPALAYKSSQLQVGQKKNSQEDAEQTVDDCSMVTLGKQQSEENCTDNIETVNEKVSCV
Experimental: (§1) Vasoconstriction Experiment
(§2) Contractions of the rat caudal ateries were investigated by the method of Van Neuten et al. (J. Pharmacol. Exp. Ther., 218, 217-230, 1981).
(§3) Male Sprague-Dawley rats, each weighing approximately 500 g, were sacrificed by rapid exsanguination. The caudal arteries were dissected free from connective tissue and cut into spiral strips (2×20 mm). The resulting preparations were mounted in organ baths, each containing 10 ml of Tyrode solution maintained at 37° C., and then gassed with a mixture of 95% by volume O2 and 5% CO2. The preparations were allowed to equilibrate for 1 hour before being used in the experiment.
(§4) An initial optimum resting tension of 0.5 g was applied to the preparations, and isometric contractions were recorded with force-displacement transducers. The relaxant effects of the test compounds were determined on preparations which had been precontracted with 5-HT (5-hydroxytryptamine) (3×10^-6 M), which is an agonist of the 5-HT2 receptors, or phenylephrine (10^-6 M), which is an agonist of the adrenaline-α1 receptors. After the constractile response to the 5-HT or the phenylephrine had reached a steady state, the test compound was added cumulatively to the bathing medium. At the end of the experiments, papaverine (10^-4 M) was added to produce the maximum relaxation.
(§5) The relaxation induced by each test compound was calculated as a percentage of the maximum relaxation induced by 10^-4 M of papaverine. The concentrations causing one half of the maximum relaxation (IC50) were calculated by the method of least squares.

adrenaline-α1 receptors = experiment: Vasoconstriction experiment: relaxation of rat caudal artery strips precontracted with phenylephrine; assay type: cell-based, rat (male Sprague-Dawley); conditions: precontracted with phenylephrine 10^-6 M; concentration causing one half of maximum relaxation (papaverine 10^-4 M = maximum); 37 °C; read-out: IC50 adrenalin-α1
Experimental: as §1, §2, §3, §4, §5

SMILES	IC50 (5-HT2 receptors) [nM]	IC50 (adrenaline-α1 receptors) [nM]
COc1cccc(CCc2ccccc2OCCC2CCCCN2C)c1 (stereo not shown) [Example 48, 2-(2-{2-[2-(3-Methoxyphenyl)ethyl]phenoxy}ethyl)-1-methylpiperidine hydrochloride]	3.7	2500
COc1cccc(CCc2ccccc2OCC2CCCN(C)C2)c1 (stereo not shown) [Example 50, 3-{2-[2-(3-Methoxyphenyl)ethyl]phenoxymethyl}-1-methylpiperidine hydrochloride]	4.3	3700
COc1cccc(CCc2ccccc2OC[C@@H]2CCCN2C)c1 [Example 58, (S)-2-{2-[2-(3-Methoxyphenyl)ethyl]phenoxymethyl}-1-methylpyrrolidine hydrochloride]	5	4900
CN1CCCC1CCOc1ccccc1CCc1ccccc1F (stereo not shown) [Example 97, 2-(2-{2-[2-(2-Fluorophenyl)ethyl]phenoxy}ethyl)-1-methylpyrrolidine hydrochloride]	6.5	860
CN1CCCC1CCOc1ccccc1CCc1cccc(Br)c1 (stereo not shown) [Example 98, 2-(2-{2-[2-(3-Bromophenyl)ethyl]phenoxy}ethyl)-1-methylpyrrolidine hydrochloride]	5.4	2200
CCOc1cccc(CCc2ccccc2OCCC2CCCN2C)c1 (stereo not shown) [Example 99, 2-(2-{2-[2-(3-Ethoxyphenyl)ethyl]phenoxy}ethyl)-1-methylpyrrolidine hydrochloride]	6.1	1300
CCOc1ccc(CCc2ccccc2OCCC2CCCN2C)cc1 (stereo not shown) [Example 101, 2-(2-{2-[2-(4-Ethoxyphenyl)ethyl]phenoxy}ethyl)-1-methylpyrrolidine hydrochloride]	3.7	3700
CN1CCCC1CCOc1ccccc1CCc1ccccc1C#N (stereo not shown) [Example 108, 2-(2-{2-[2-(2-Cyanophenyl)ethyl]phenoxy}ethyl)-1-methylpyrrolidine hydrochloride]	2.2	1700
COc1cccc(CCc2ccccc2OCC[C@@H]2CCCN2C)c1 [Example 113, (S)-2-(2-{2-[2-(3-Methoxyphenyl)ethyl]phenoxy}ethyl)-1-methylpyrrolidine hydrochloride]	2.2	1200
CN1CCC[C@H]1CCOc1ccccc1CCc1cccc(OC(F)F)c1 [Example 116, (S)-2-(2-{2-[2-(3-Difluoromethoxyphenyl)ethyl]phenoxy}ethyl)-1-methylpyrrolidine hydrochloride]	2.2	–
COc1cc(CCc2ccccc2OCC[C@@H]2C[C@@H](O)CN2C)cc(OC)c1 [Example 118, (2R,4R)-4-hydroxy-2-(2-{2-[2-(3,5-dimethoxyphenyl)ethyl]phenoxy}ethyl)-1-methylpyrrolidine]	2.6	5400
COc1cccc(CCc2ccccc2OC[C@H]2CCCNC2)c1 [Example 120, (S)-3-{2-[2-(3-Methoxyphenyl)ethyl]phenoxymethyl}piperidine hydrochloride]	4.2	–
COc1cccc(CCc2ccccc2OC[C@H]2CCCN(C)C2)c1 [Example 121, (S)-3-{2-[2-(3-Methoxyphenyl)ethyl]phenoxymethyl}-1-methylpiperidine hydrochloride]	2.2	–
FC(F)Oc1cccc(CCc2ccccc2OCC2CCCNC2)c1 (stereo not shown) [Example 123, 3-{2-[2-(3-Difluoromethoxyphenyl)ethyl]phenoxymethyl}piperidine hydrochloride]	5.7	–
CN1CCCC(COc2ccccc2CCc2cccc(OC(F)F)c2)C1 (stereo not shown) [Example 124, 3-{2-[2-(3-Difluoromethoxyphenyl)ethyl]phenoxymethyl}-1-methylpiperidine hydrochloride]	4.6	–
